Data published in US20240317826A1, “COMPOSITIONS AND METHODS FOR TREATING AND/OR I[…] AGENT FOR TREATING HIV-1 INFECTIONS” (priority 2021, published 2024).
Entries after “also recorded” stand apart in the source; their conditions may differ. Like-named read-outs stand apart in the source and are kept apart here.

Key:
IN/TAR RNA complex = molecular target: T1, IN/TAR RNA complex (Human immunodeficiency virus type 1 group M subtype B, UniProt P04585); test: RNA-co-IP in 293T cells: TAR RNA bound to YFP-IN; type: cell-based, HIV-1
T1 construct: expressed in transfected cells; host or cells: 293T cells
Source text: Panels d-g show the input RNA and protein levels within transfected cells: the RT-PCR analysis of input TAR RNA levels (panel d); Immunoblot analysis of input HA-INI1 (panel e); input YFP-IN (panel f); and GAPDH level for loading control (panel g). Lane 1 is RNA-co-IP using isotype IgG control antibodies and lanes 2-7 are RNA-co-IP using anti-GFP antibodies to pull down IN. There is ˜1000 fold inhibition of RNA and INI1 binding to IN in the presence of SP-38 peptide (compare lane 6 to lane 5).
For RNA-co-IP, […] were transfected with pCMV-Tat and pLTR-luc plasmids along with pYFP-IN and pCGN-INI1. Immunopreciptation was carried out as above using α-GFP (Cell Signal, Catalogue #2555; Lot #8; 5 ag/sample) antibodies. The immunecomplexes were then split into two and RNA was isolated from one half using Trizol reagent (Invitrogen Catalogue #15596026) and subjected to qRT-PCR using Early RT primers. The other half was subjected to immunoblot analysis.
To determine if stapled peptides can inhibit interaction of IN with TAR RNA in cells, we carried out RNA-co-IP experiments (FIG. 8e). YFP-IN and TAR RNA were expressed by co-transfecting plasmids pYFP-fN, pLTIR-luc and pTat in 293T cells. Cells were treated with SP-38 or SP-83 (D225G mutant) peptides. After transfection, the cell lysates were treated with DNaseI and subjected to immunoprecipitation (IP) using α-GFP antibodies to pull down YFP-IN and associated complexes. RNA was separated from the immune complexes and subjected to RT-PCR to detect bound TAR RNA (FIG. 8e, panel a). Immunoblot analysis of bound proteins were carried out using: α-HA to detect bound HA-INI1 (FIG. 8e, panel b) and α-GFP to detect YFP-IN (FIG. 8e, panel c). RT-PCR of the RNA isolated from cell lysate was used as input control (FIG. 8e, panel d). Immunoblot analysis of total proteins from cell lysates as input control were carried out using α-HA to detect input HA-INI1 (FIG. 8e, panel e), α-GFP to detect input YFP-IN (FIG. 8e, panel f), and α-GAPDH to detect GAPDH as loading control (FIG. 8e, panel g). […] Expression of both GFP-IN and TAR RNA in the cells led to successful RNA-co-IP by α-GFP antibodies (FIG. 8e, lane 5).

HIV-1NL4-3 = test: Multiday HIV-1 replication assay in CEM-GFP cells; type: cell-based; conditions: CEM-GFP cells infected with HIV-1NL4-3; 1 and 5 micromolar peptide; GFP expression and p24 in culture supernatants
Source text: FIG. 9A-FIG. 9C show an inhibition of HIV-1 replication by Stapled peptides in a multiday replication assay in CEM-GFP cells. […] FIG. 9B and FIG. 9C show images representing the expression of GFP in CEM GFP cells in presence or absence of 1 and 5 micromolar Stapled peptides or DMSO control. FIG. 9D and FIG. 9E show p24 ELISA analysis of culture supernatants from CEM-GFP cells from panels FIG. 9B and FIG. 9C samples. The CEM-GFP cells were infected with HIV-1NL4-3 and treated with stapled peptides. Culture supernatants were collected on multiple days as indicated and p24 analysis was carried out.
To determine if the stapled peptides can inhibit HIV-1 replication in cell culture, we used CEM-GFP cell lines, which harbor LTR-GFP as a reporter. HIV-1 infection of these cells activates GFP expression.

[1] = system: INI1 incorporation into HIV-1 virions; test: Immunoblot of virions for incorporation of INI1; type: cell-based; conditions: Western analysis of concentrated virions
Source text: FIG. 12A-FIG. 12C show effects of stapled peptides on virion morphogenesis and incorporation of INI1. […] The middle panel is the expanded version and the lower panel represents the carton of the two viral particles from the middle panel. Note the empty capsid shell and eccentric electron dense material, typical of morphologically defective virions. […] About 200 virions each were scored to quantify four different types of morphological forms—Conical (Co), Eccentric (Ec), Immature (Im) and Unclear (Uc).
We tested the incorporation of INI1 into the virions. Electron microscopy analysis of ˜200 particles and Western analysis of concentrated virions were carried out to determine the presence or absence of INI1 (FIG. 12b).

[2] = system: reactivated HIV-1 from latent cells (J1.1); test: Co-culture of PMA-reactivated latent J1.1 cells with CEM-GFP cells; type: cell-based; parameters: inhibition of infection of CEM-GFP cells by reactivated virus (green cells): dose or concentration left out as unconfirmed; conditions: J1.1 + CEM-GFP co-culture; for inhibition of infection of CEM-GFP cells by reactivated virus (green cells): PMA, images day 2 postinduction; for inhibition of virus spread, p24 levels in culture: p24 on day 5
Source text: FIG. 13A-FIG. 13C show staple peptides inhibit infection of reactivated HIV-1 from latent cells. […] Cells harboring latent virus (J1.1) were co-cultured with CEM-GFP cells in the presence and absence of stapled peptides. Addition of PMA reactivates HIV-1 from latent cells which infect CEM cells to induce expression of GFP. […] Images were taken on day 2 postinduction. […] Experiments was done in triplicates and the graph represents mean+/−SEM.
As a proof-of-concept to test if the stapled peptides inhibit spreading of the reactivated latent viruses, we used an in vitro cell line model of latency, J1.1 cells. J1.1 have a single latently integrated provirus which is activated using LRAs. We activated the latently integrated provirus by the addition of PMA and then mixed them with CEM-GFP cells in the cultures. Infection of CEM-GFP cells with virus produced from J1.1 upon reactivation turns the CEM-GFP T-cells green (FIGS. 13a and b right side panels). We tested the effect of addition of stapled peptides in this co-culture experiment (FIGS. 13a and b middle and left side panels). […] We furthermore determined the p24 released from the culture supernatant as a measure of the virus production in the presence and absence of stapled peptides (FIG. 13c).

Row | Substance | inhibition of IN/RNA complex formation within cells (IN/TAR RNA complex) | inhibition of RNA binding to IN in RNA-co-IP (IN/TAR RNA complex; RT-PCR of bound TAR RNA) | inhibition of IN/RNA complex formation within cells (IN/TAR RNA complex; listed as SP83 (D225G)) | inhibition of HIV-1 propagation/replication (HIV-1NL4-3) | incorporation of INI1 into virions [1] | inhibition of infection of CEM-GFP cells by reactivated virus (green cells) [2] | inhibition of virus spread, p24 levels in culture [2]
1 | lys-Leu-Met-Thr-Pro-Glu-Met-Phe-S5-Glu-Ile-Leu-S5-Cys-Gly-Leu-Asn [SP83] | not | not | does not inhibit | not | incorporated | not | not
2 | lys-Leu-Met-Thr-Pro-Glu-Met-Phe-S5-Glu-Ile-Leu-S5-Cys-Asp-Leu-Asn [SP38] | potently inhibits |  |  | Inhibits HIV-1 Replication at Low Micromolar Concentrations; also recorded: potently inhibited | not incorporated; also recorded: lack of INI1 incorporation into virions | inhibited the infection | inhibited the virus spread; also recorded: inhibits p24 levels in induced and uninduced conditions
